Data on one compound can be found in patent US5760241A, “Thiol derivatives with metallopeptidase inhibitory activity” (priority 1996, dated 1998).

The subject of one test is ACE (SHR lungs). The test can be described thus: Ex vivo ACE-inhibitory activity in lungs of treated SHR. Conditions: i.v. 0.64 μmoles/kg, 5 minutes. Also noted: species or system spontaneously hypertensive rats (SHR). How it is done: (§1) The ex vivo ACE/NEP-inhibitory activity of the compounds of formula I, in particular, was evaluated by considering the enzymatic activity in tissue homogenates (lung and kidney for the ACE- and NEP-inhibitory activity, respectively) from spontaneously hypertensive rats (SHR), treated with the tested compounds by intravenous or oral route.
b) ACE-inhibitory activity
The ex vivo ACE-inhibitory activity was evaluated by using a radiometric assay method, as reported in the literature by J. W. Ryan et al. in Biochem. J. (1977), 167, 501-504.
The inhibitory activity of the compounds of formula I was evaluated in lungs of spontaneously hypertensive rats (SHR), 5 minutes after i.v. injection (0.6, 0.64 and 21 μmoles/kg) and 30 minutes, 60 minutes and 4 hours after oral administration (30 μmoles/kg) of the tested compounds.
After the removal of the lungs from SHR, the lung tissue was homogenized and incubated for 2 hours at 37° C. in the presence of [^3 H]Hyp-Gly-Gly, as a substrate.
The reaction was stopped by adding hydrochloric acid.
The released radiolabelled hyppuric acid was extracted with ethyl acetate and counted by liquid scintillation spectrometry, according to conventional methods.
The ACE-inhibitory activity of the tested compounds was expressed as percentage of ACE-inhibition in SHR lungs.
(§2) As an example, the percentages of basal enzymatic activity obtained in the ex vivo tests after the administration of compounds 29 and 41, as representative compounds of formula I, and of the comparison compounds R-1, R-2, R-3 and R-4 are reported in the following table 2.

Another test deals with NEP (SHR kidneys). The test can be described thus: Ex vivo NEP-inhibitory activity in kidneys of treated SHR. The settings on record: i.v. 0.64 μmoles/kg, 5 minutes. Also noted: species or system spontaneously hypertensive rats (SHR). As for the experimental part: as §1
(§3) a) NEP-inhibitory activity
The ex vivo NEP-inhibitory activity was evaluated according to the procedure reported in the literature by M. Orlowsky et al., in Biochemistry 1981, 20, 4942-4950.
The inhibitory activity of the compounds of formula I was evaluated in kidneys of spontaneously hypertensive rats (SHR), 5 minutes after i.v. injection (0.6, 0.64 and 21 μmoles/kg) and 30 minutes, 60 minutes and 4 hours after oral administration (30 μmoles/kg) of the tested compounds.
After the removal of the kidneys from SHR, the renal tissue was homogenized and incubated for 15 minutes at 37° C. in the presence of Glutaryl-Ala-Ala-Phe-2-naphthylamide (GAAP), as a substrate, and aminopeptidase M at pH 7.6.
The reaction was stopped by adding an aqueous solution at 10% of trichloroacetic acid.
The released 2-naphthylamine was determined by adding fast garnet dye (2 ml).
Enzyme reaction rates were determined by measuring the increase in the optical density at 524 nm (OD524) with respect to a standard obtained with 2-naphthylamine complexed with fast garnet.
The NEP-inhibitory activity of the tested compounds was expressed as percentage of NEP-inhibition in SHR kidneys.
as §2

The target in test [1] is T1, NEP (membranes from rat kidney cortex) (Rattus norvegicus, UniProt P07861).
T1 construct: from tissue; host or cells: kidney cortex membranes of male Sprague-Dawley rats
T1 sequence (P07861 1-750): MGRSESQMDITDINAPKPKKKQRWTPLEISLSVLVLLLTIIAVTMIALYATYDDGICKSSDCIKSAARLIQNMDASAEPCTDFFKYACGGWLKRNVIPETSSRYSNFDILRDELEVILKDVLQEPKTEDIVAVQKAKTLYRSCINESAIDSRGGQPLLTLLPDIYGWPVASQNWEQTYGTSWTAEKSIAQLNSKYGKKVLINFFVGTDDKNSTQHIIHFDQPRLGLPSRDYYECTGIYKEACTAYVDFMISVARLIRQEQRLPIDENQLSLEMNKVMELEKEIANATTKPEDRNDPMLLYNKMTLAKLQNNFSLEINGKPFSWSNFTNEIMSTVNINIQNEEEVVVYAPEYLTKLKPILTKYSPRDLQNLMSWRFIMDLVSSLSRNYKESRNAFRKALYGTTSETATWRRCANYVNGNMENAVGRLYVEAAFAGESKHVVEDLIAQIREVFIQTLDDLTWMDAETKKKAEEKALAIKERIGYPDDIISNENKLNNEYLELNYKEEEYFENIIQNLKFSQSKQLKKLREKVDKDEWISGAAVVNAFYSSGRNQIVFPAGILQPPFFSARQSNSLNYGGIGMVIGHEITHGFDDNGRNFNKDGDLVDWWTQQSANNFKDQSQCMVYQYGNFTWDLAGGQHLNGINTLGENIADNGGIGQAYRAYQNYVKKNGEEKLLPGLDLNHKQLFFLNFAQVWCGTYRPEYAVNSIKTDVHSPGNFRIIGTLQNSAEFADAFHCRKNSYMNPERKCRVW
Description: In vitro NEP-inhibitory activity in rat kidney cortex membranes ([3H][Leu5]-enkephaline substrate). In kind it is biochemical, male Sprague-Dawley rats. The settings on record: 20 minutes at 30° C.; [3H][Leu5]-enkephaline 15 nM. How it is done: as §3
The NEP-inhibitory activity was evaluated in membranes from rat kidney cortex prepared according to the procedure described by T. Maeda et al. in Biochim. Biophys. Acta 1983, 731(1), 115-120.
By working at 0°-4° C., kidneys were removed from male Sprague-Dawley rats weighing approximately 300 g.
Cortex was carefully dissected, finely minced and suspended in a homogenization buffer (10 mM sodium phosphate pH 7.4 containing 1 mM MgCl2, 30 mM NaCl, 0.02% NaN3) 1:15 weight/volume.
The tissue was then homogenized for 30 seconds using an Ultra-Turrax homogenizer.
Approximately 10 ml of homogenate were layered over 10 ml of sucrose (41% weight/volume) and centrifuged at 31200 rpm for 30 minutes at 4° C. in a fixed angle rotor. The membranes were collected from the buffer/sucrose interface, washed twice with 50 mM TRIS/HCl buffer (pH 7.4) and resuspended into the same buffer for storage.
The membranes were stored in small aliquots at -80° C. until use.
The NEP-inhibitory activity was evaluated according to the method described by C. Llorens et al., in Eur. J. Pharmacol., 69, (1981), 113-116, as reported hereinafter.
Aliquots of the membrane suspension prepared as above described (concentration 5 μg/ml of proteins) were preincubated in the presence of an aminopeptidase inhibitory (Bestatin--1 mM) for 10 minutes at 30° C.
[^3 H][Leu^5 ]-enkephaline (15 nM) and buffer TRIS/HCl pH 7.4 (50 mM) were added in order to obtain a final volume of 100 μl.
Incubation (20 minutes at 30° C.) was stopped by adding HCl 0.1M (100 μl).
The formation of the metabolite [^3 H]Tyr-Gly-Gly was quantified by chromatography on polystyrene columns (Porapak Q).

Regarding `O=C(N[C@@H](Cc1ccc(-c2ccccc2)cc1)C(=O)O)C(CS)Cc1ccccc1` (stereo partly drawn) [compound 41], in the test with ACE (SHR lungs), the “ACE-inhibition (lungs), 5 minutes” value amounted to 49%. Also, the “NEP-inhibition (kidneys), 5 minutes” value in the test on NEP (SHR kidneys) came out at 20%. In test [1], the concentration for half-maximal inhibition (IC50) (usually the concentration needed to halve the response being measured) came to 5 nM.
